In article PMC8196580, “Identification of Kaurane-Type Diterpenes as Inhibitors of Leishmania Pteridine Reductase I” (Molecules, 2021):
Read-outs that look alike come from different tables or passages of the source.

Columns and labels:
L. major [1] = tested on: L. major; parameters: method as in ChEMBL; conditions: ref ChEMBL, cited from earlier work
L. major [2] = test: ChEMBL dataset of pIC50 values against L. major used for the RF model (Table S1); format: cell-based, Leishmania major; also: call rule not given here
[3] = ChemBL structures with pIC50 values used for Random forest model construction (Table S1)
[4] = Active/Inactive class assigned to ChemBL structures for Random forest model construction (Table S1)
[5] = ChemBL structures with pIC50 values used for Random forest model construction, L. major
[6] = Active/Inactive class assigned to the ChEMBL pIC50 value for Random forest model construction, ref ChEMBL

Compound: COc1cc(OC)c2c(C)[n+](-c3cccc4cc5ccccc5cc34)c(C)cc2c1.F[B-](F)(F)F [CHEMBL482394]
- pIC50 Value (L. major [1]; [3]): 6.14
- Outcome (L. major [2]; [4]): Active

Compound: COc1cc(OC)c2c(C)[n+](-c3ccc(C)cc3C)c(C)cc2c1.F[B-](F)(F)F [CHEMBL482395]
- pIC50 Value (L. major [1]; [3]): 5.48
- Outcome (L. major [2]; [4]): Active

Compound: Cn1c([N+](=O)[O-])cnc1-c1nnc(N2CCN(C(=O)c3ccccc3)CC2)s1 [CHEMBL482463]
- pIC50 Value (L. major [1]; [5]): 4.98
- Outcome (L. major [2]; [6]): Inactive

Compound: Cn1c([N+](=O)[O-])cnc1-c1nnc(N2CCN(C(=O)c3ccccc3Cl)CC2)s1 [CHEMBL482464]
- pIC50 Value (L. major [1]; [5]): 4.69
- Outcome (L. major [2]; [6]): Inactive

Compound: Cn1c([N+](=O)[O-])cnc1-c1nnc(N2CCN(C(=O)c3cccc(Cl)c3)CC2)s1 [CHEMBL482665]
- pIC50 Value (L. major [1]; [5]): 4.75
- Outcome (L. major [2]; [6]): Inactive

Compound: Cn1c([N+](=O)[O-])cnc1-c1nnc(N2CCN(C(=O)c3cccs3)CC2)s1 [CHEMBL482666]
- pIC50 Value (L. major [1]; [5]): 4.59
- Outcome (L. major [2]; [6]): Inactive

Compound: C[C@H]1COC2=C1C(=O)C(=O)c1c2ccc2c1[C@H](O)CCC2(C)C [CHEMBL485279]
- pIC50 Value (L. major [1]; [5]): 4.33
- Outcome (L. major [2]; [6]): Inactive

Compound: CC(C)C1=Cc2ccc3c(c2C(=O)C1=O)C(=O)CCC3(C)C [CHEMBL485479]
- pIC50 Value (L. major [1]; [5]): 4.75
- Outcome (L. major [2]; [6]): Inactive

Compound: C[C@H](O)C#CC#CC#CC#CCCCCCCCC(=O)O [CHEMBL487989]
- pIC50 Value (L. major [1]; [3]): 5.31
- Outcome (L. major [2]; [4]): Active

Compound: Cc1ncc(-c2ccnc(Nc3ccc(S(C)(=O)=O)cc3)n2)n1C(C)C [CHEMBL488436]
- pIC50 Value (L. major [1]; [3]): 5.50
- Outcome (L. major [2]; [4]): Active

Compound: C/C=C/c1cc(O)c(OC)c(OC)c1 [CHEMBL489518]
- pIC50 Value (L. major [1]; [5]): 3.43
- Outcome (L. major [2]; [6]): Inactive

Compound: C=CCCC/C=C\C/C=C\CCCCCCCc1cc(O)cc(O)c1 [CHEMBL496449]
- pIC50 Value (L. major [1]; [5]): 4.98
- Outcome (L. major [2]; [6]): Inactive

Compound: CC(C)=CC(=O)N[C@H]1CC[C@@]2(C)[C@@H](CC[C@@H]3[C@@H]2CC[C@]2(C)C([C@H](C)N(C)C)=CC[C@@H]32)[C@H]1O [CHEMBL496487]
- pIC50 Value (L. major [1]; [5]): 4.95
- Outcome (L. major [2]; [6]): Inactive

Compound: C[C@@H]([C@H]1CC=C2[C@@H]3CCC4=C[C@@H](N(C)C)CC[C@]4(C)[C@H]3CC[C@@]21C)N(C)C [CHEMBL496488]
- pIC50 Value (L. major [1]; [5]): 5.17
- Outcome (L. major [2]; [6]): Active

Compound: C[C@@H]([C@H]1CC[C@H]2[C@@H]3CC[C@H]4C(=O)C(NC=O)=CC[C@]4(C)[C@H]3CC[C@]12C)N(C)C [CHEMBL496489]
- pIC50 Value (L. major [1]; [5]): 4.65
- Outcome (L. major [2]; [6]): Inactive

Compound: COc1ccc([C@@H]2COc3c(ccc4occc34)C2)c(OC)c1O [CHEMBL498724]
- pIC50 Value (L. major [1]; [5]): 4.76
- Outcome (L. major [2]; [6]): Inactive

Compound: COc1ccc([C@@H]2COc3c(ccc4c3C=CC(C)(C)O4)C2)c(OC)c1O [CHEMBL498725]
- pIC50 Value (L. major [1]; [5]): 4.63
- Outcome (L. major [2]; [6]): Inactive

Compound: CC(C)(O)[C@@H]1CC[C@](C)([C@H]2[C@@H](O)C[C@@]3(C)[C@@H]4C[C@H](O)[C@H]5C(C)(C)[C@@H](O[C@@H]6OC[C@@H](O)[C@H](O)[C@H]6O)CC[C@@]56C[C@@]46CC[C@]23C)O1 [CHEMBL500607]
- pIC50 Value (L. major [1]; [5]): 4.25
- Outcome (L. major [2]; [6]): Inactive

Compound: C[C@@H]1C[C@@]2(O[C@H]3C[C@@]4(C)[C@@H]5C[C@H](O)[C@H]6C(C)(C)[C@@H](O[C@@H]7OC[C@@H](O)[C@@H](O)[C@H]7O)CC[C@@]67C[C@@]57CC[C@]4(C)[C@@H]13)O[C@H](O)[C@]1(C)C[C@H]21 [CHEMBL501026]
- pIC50 Value (L. major [1]; [5]): 4.19
- Outcome (L. major [2]; [6]): Inactive

Compound: C/C=C/c1cc(OC)c(OC)c(O)c1OC [CHEMBL501754]
- pIC50 Value (L. major [1]; [5]): 3.41
- Outcome (L. major [2]; [6]): Inactive

Compound: COc1ccc([C@@H]2COc3c(ccc(O)c3CC=C(C)C)C2)c(OC)c1O [CHEMBL501755]
- pIC50 Value (L. major [1]; [5]): 5.10
- Outcome (L. major [2]; [6]): Active

Compound: CN[C@@H](C)[C@H]1CC[C@H]2[C@@H]3CC[C@H]4C[C@@H](N(C)C(=O)c5ccccc5)CC[C@]4(C)[C@H]3CC[C@]12C [CHEMBL503323]
- pIC50 Value (L. major [1]; [5]): 5.06
- Outcome (L. major [2]; [6]): Active

Compound: CC(C)(O)[C@@H]1CC[C@](C)([C@@H]2[C@@H](O)C[C@@]3(C)[C@@H]4C[C@H](O)[C@H]5C(C)(C)[C@@H](O)CC[C@@]56C[C@@]46CC[C@]23C)O1 [CHEMBL504655]
- pIC50 Value (L. major [1]; [5]): 3.97
- Outcome (L. major [2]; [6]): Inactive

Compound: CN[C@@H](C)[C@H]1CC[C@H]2[C@@H]3CC[C@H]4[C@@H](OC(C)=O)[C@@H](NC(=O)C=C(C)C)CC[C@]4(C)[C@H]3CC[C@]12C [CHEMBL504923]
- pIC50 Value (L. major [1]; [3]): 5.48
- Outcome (L. major [2]; [4]): Active

Compound: C/C=C(\C)C(=O)N[C@H]1CC[C@]2(C)[C@H]3CC[C@]4(C)[C@@H]([C@H](C)NC)CC[C@H]4[C@@H]3CC[C@H]2[C@H]1OC(C)=O [CHEMBL504924]
- pIC50 Value (L. major [1]; [3]): 5.82
- Outcome (L. major [2]; [4]): Active

Compound: CCOC(=O)C1=C(C)NC(=O)NC1c1ccccc1 (stereo not drawn) [CHEMBL507603]
- pIC50 Value (L. major [1]; [3]): 5.42
- Outcome (L. major [2]; [4]): Active

Compound: COc1cc(OC)c2c(C)[n+](-c3ccc4scnc4c3)c(C)cc2c1.F[B-](F)(F)F [CHEMBL515117]
- pIC50 Value (L. major [1]; [5]): 4.00
- Outcome (L. major [2]; [6]): Inactive

Compound: O=C(c1ccc(Cl)cc1)N1CCN(c2nnc(-c3ccc([N+](=O)[O-])s3)s2)CC1 [CHEMBL515851]
- pIC50 Value (L. major [1]; [5]): 4.62
- Outcome (L. major [2]; [6]): Inactive

Compound: O=C(c1ccc(Cl)s1)N1CCN(c2nnc(-c3ccc([N+](=O)[O-])o3)s2)CC1 [CHEMBL516307]
- pIC50 Value (L. major [1]; [5]): 4.93
- Outcome (L. major [2]; [6]): Inactive

Compound: COc1cc(OC)c2c(C)[n+](-c3cccc4cc5ccccc5cc34)c(C)cc2c1.O=C([O-])C(F)(F)F [CHEMBL516450]
- pIC50 Value (L. major [1]; [3]): 5.73
- Outcome (L. major [2]; [4]): Active

Compound: COc1cc(OC)c2c(C)[n+](-c3ccc(C(C)(C)C)cc3)c(C)cc2c1.F[B-](F)(F)F [CHEMBL516763]
- pIC50 Value (L. major [1]; [3]): 5.57
- Outcome (L. major [2]; [4]): Active

Compound: Cc1cccc2oc(=O)c3c(c12)O[C@H](C)[C@@]3(C)CC(=O)[C@@H]1OC1(C)C [CHEMBL517042]
- pIC50 Value (L. major [1]; [5]): 4.87
- Outcome (L. major [2]; [6]): Inactive

Compound: CCCc1ccc(-[n+]2c(C)cc3cc(OC)cc(OC)c3c2C)cc1.F[B-](F)(F)F [CHEMBL517690]
- pIC50 Value (L. major [1]; [3]): 5.79
- Outcome (L. major [2]; [4]): Active

Compound: O=C(c1ccc(Br)s1)N1CCN(c2nnc(-c3ccc([N+](=O)[O-])s3)s2)CC1 [CHEMBL518866]
- pIC50 Value (L. major [1]; [5]): 4.61
- Outcome (L. major [2]; [6]): Inactive

Compound: COc1cc(OC)c2c(C)[n+](-c3ccc(C(C)C)cc3C(C)C)c(C)cc2c1.F[B-](F)(F)F [CHEMBL519606]
- pIC50 Value (L. major [1]; [3]): 6.27
- Outcome (L. major [2]; [4]): Active

Compound: C[C@H]1COC2=C1C(=O)C(=O)c1c2ccc2c1C(=O)CCC2(C)C [CHEMBL519694]
- pIC50 Value (L. major [1]; [5]): 4.59
- Outcome (L. major [2]; [6]): Inactive

Compound: Cn1c([N+](=O)[O-])cnc1-c1nnc(N2CCN(C(=O)c3ccc(Br)s3)CC2)s1 [CHEMBL520309]
- pIC50 Value (L. major [1]; [5]): 4.80
- Outcome (L. major [2]; [6]): Inactive

Compound: COc1cc(OC)c2c(C)[n+](-c3ccc(Br)cc3)c(C)cc2c1.F[B-](F)(F)F [CHEMBL520594]
- pIC50 Value (L. major [1]; [5]): 4.71
- Outcome (L. major [2]; [6]): Inactive

Compound: COc1cc(OC)c2c(C)[n+](-c3ccc(C)cc3)c(C)cc2c1 [CHEMBL520612]
- pIC50 Value (L. major [1]; [3]): 5.58
- Outcome (L. major [2]; [4]): Active

Compound: COc1cc2c(c(OC)c1)C(C)N(c1cccc3ccccc13)C(C)C2 (stereo not drawn) [CHEMBL520770]
- pIC50 Value (L. major [1]; [5]): 4.18
- Outcome (L. major [2]; [6]): Inactive

Compound: Cn1c([N+](=O)[O-])cnc1-c1nnc(N2CCN(C(=O)c3ccc(Cl)cc3)CC2)s1 [CHEMBL520958]
- pIC50 Value (L. major [1]; [5]): 4.37
- Outcome (L. major [2]; [6]): Inactive

Compound: COc1cc(OC)c2c(C)[n+](-c3c(C)cccc3C)c(C)cc2c1.F[B-](F)(F)F [CHEMBL521247]
- pIC50 Value (L. major [1]; [3]): 5.46
- Outcome (L. major [2]; [4]): Active

Compound: Cn1c([N+](=O)[O-])cnc1-c1nnc(N2CCN(C(=O)c3ccc(Cl)s3)CC2)s1 [CHEMBL521458]
- pIC50 Value (L. major [1]; [5]): 5.03
- Outcome (L. major [2]; [6]): Active

Compound: C/C=C(\C)C(=O)NC1=CC[C@@]2(C)C(=CC[C@H]3[C@@H]4CC[C@H]([C@H](C)NC)[C@@]4(C)CC[C@@H]32)C1=O [CHEMBL525190]
- pIC50 Value (L. major [1]; [5]): 4.67
- Outcome (L. major [2]; [6]): Inactive

Compound: CCCCOc1ccc(-c2nc3ccccc3[nH]2)cc1 [CHEMBL531335]
- pIC50 Value (L. major [1]; [3]): 5.61
- Outcome (L. major [2]; [4]): Active

Compound: COc1cccc(C(=O)/C=C/c2ccc(-n3ccnc3)cc2)c1 [CHEMBL569119]
- pIC50 Value (L. major [1]; [3]): 5.49
- Outcome (L. major [2]; [4]): Active

Compound: O=C(/C=C/c1ccc(-n2ccnc2)cc1)c1ccccc1Br [CHEMBL569130]
- pIC50 Value (L. major [1]; [3]): 5.61
- Outcome (L. major [2]; [4]): Active

Compound: O=C(/C=C/c1ccc(-n2ccnc2)cc1)c1ccccc1Cl [CHEMBL569355]
- pIC50 Value (L. major [1]; [3]): 5.52
- Outcome (L. major [2]; [4]): Active
